In patent US5905068A, “Retroviral protease inhibiting compounds” (Abbott Laboratories, priority 1996, dated 1999):

Columns and labels:
[1] = Cytotoxicity in uninfected MT4 cells (MTT); type: cell-based; conditions: human, 5 days, n=four duplicate determinations, read-out: CTC50 (50% cytotoxicity concentration)
Procedure: The anti-HIV activity of the compound of the invention was determined in MF4 cells according to the following procedure: MT4 cells were infected with cell-free supernatant of HIVIIIB (previously frozen with known 50% tissue culture infectious dose (TCID50) at 0.003 multiplicity of infection (MOI)) for one hour. After one hour infection, cells were washed twice to remove residual viruses, resuspended in culture media and seeded into 96-well tissue culture plates at 1×10^4 cells per well with various half-log dilutions of compounds. Uninfected cells were included a toxicity and cell controls. […] All assay plates were incubated in a 37° C. incubator for 5 days. […] SDS (20%) with 0.02N HCl in water was added at 50 μL per well to lyse cells. Plates were incubated overnight for complete cell lysis and then read on a microtiter plate reader at 570/650 nm wavelengths to determine cell optical density (O.D.). Raw data was analysed for percent inhibition by the following formula: [formula]
The 50% cytotoxicity concentration (CTC50) was calculated using uninfected MT4 cells

HIVIIIB = assay: Antiviral Activity: anti-HIV activity in MT4 cells infected with HIVIIIB (MTT); type: cell-based; conditions: Human immunodeficiency virus 1, 120 h, MOI 0.003, 5 days, n=four duplicate determinations
Procedure: The anti-HIV activity of the compound of the invention was determined in MF4 cells according to the following procedure: MT4 cells were infected with cell-free supernatant of HIVIIIB (previously frozen with known 50% tissue culture infectious dose (TCID50) at 0.003 multiplicity of infection (MOI)) for one hour. After one hour infection, cells were washed twice to remove residual viruses, resuspended in culture media and seeded into 96-well tissue culture plates at 1×10^4 cells per well with various half-log dilutions of compounds. Uninfected cells were included a toxicity and cell controls. RPMI 1640 media (GIBCO) with 10% fetal bovine serum was used as culture media. Various concentrations (50%, 25% and 12.5%) of human serum (SIGMA) were added to culture media resulting in final concentrations of 60%, 35% and 22.5% total serum. All assay plates were incubated in a 37° C. incubator for 5 days. The compound 3-[4,5-dimethylthiozol-2-yl]-2,5-diphenyltetrazolium bromide (MTT, SIGMA, 5 mg .mL stock in PBS) was then added to all wells at 25 μL per well and incubated for 4 hours. SDS (20%) with 0.02N HCl in water was added at 50 μL per well to lyse cells. Plates were incubated overnight for complete cell lysis and then read on a microtiter plate reader at 570/650 nm wavelengths to determine cell optical density (O.D.). Raw data was analysed for percent inhibition by the following formula: [formula]
The 50% effective concentration (EC50) was calculated by the median effect equation (Chou, 1975, Proc. Int. Cong. Pharmacol. 6th p. 619) to determine the efficacy of compound. The 50% cytotoxicity concentration (CTC50) was calculated using uninfected MT4 cells
Under these conditions, the data of Table 2 was obtained (n=four duplicate determinations).

HIV-1 protease = HIV-1 protease (Human immunodeficiency virus type 1 group M subtype B, UniProt P04585); assay: Fluorogenic Assay for Screening Inhibitors of HIV Protease; conditions: pH 4.5

Compound	EC50 (HIVIIIB)	inhibition at 0.0005 µM (HIV-1 protease)	inhibition at 0.0024 µM (HIV-1 protease)	inhibition at 0.0013 µM (HIV-1 protease)	CC50 at 120 h [1]
Cc1cccc(C)c1OCC(=O)N[C@@H](Cc1ccccc1)[C@@H](O)C[C@H](Cc1ccccc1)NC(=O)OC1CCSC1 (mixture of isomers) [Example 30, (2S,3S,5S)-2-(2,6-Dimethylphenoxyacetyl)amino-5-(3(R,S)-tetrahydrothienyloxycarbonyl)amino-1,6-diphenyl-3-hydroxyhexane]	1 µM	52%	–	–	13.5 µM
Cc1cccc(C)c1OCC(=O)N[C@@H](Cc1ccccc1)[C@@H](O)C[C@H](Cc1ccccc1)NC(=O)OC1CCCSC1 (mixture of isomers) [Example 31, (2S,3S,5S)-2-(2,6-Dimethylphenoxyacetyl)amino-5-(3(R,S)-tetrahydrothiopyranyloxycarbonyl)amino-1,6-diphenyl-3-hydroxyhexane]	1.1 µM	52%	–	–	53.3 µM
Cc1cccc(CO)c1OCC(=O)N[C@@H](Cc1ccccc1)C[C@H](O)[C@H](Cc1ccccc1)NC(=O)O[C@H]1CO[C@H]2OCC[C@H]21 [Example 7, (2S,3S,5S)-5-(2-Hydroxymethyl-6-methyl-phenoxyacetyl)amino-2-((3R,3aS,6aR)-bis-tetrahydrofuran-3-yl-oxycarbonyl)amino-1,6-diphenyl-3-hydroxyhexane]	0.037 µM	88%	–	–	82 µM
Cc1cccc(C)c1NCC(=O)N[C@@H](Cc1ccccc1)[C@@H](O)C[C@H](Cc1ccccc1)NC(=O)O[C@H]1CO[C@H]2OCC[C@H]21 [Example 9, (2S,3S,5S)-5-(N-(2,6-Dimethyl-phenyl)aminoacetyl)amino-2-((3R,3aS,6aR)-bis-tetrahydrofuran-3-yl-oxycarbonyl)amino-1,6-diphenyl-3-hydroxyhexane]	0.253 µM	69%	–	–	56 µM
Cc1cccc(C)c1N(C)CC(=O)N[C@@H](Cc1ccccc1)C[C@H](O)[C@H](Cc1ccccc1)NC(=O)O[C@H]1CO[C@H]2OCC[C@H]21 [Example 13, (2S,3S,5S)-5-(N-(2,6-Dimethyl-phenyl)-N-methyl-aminoacetyl)amino-2-((3R,3aS,6aR)-bis-tetrahydrofuran-3-yl-oxycarbonyl)amino-1,6-diphenyl-3-hydroxyhexane]	2.91 µM	–	50%	–	18 µM
Cc1cc(N(C)C)cc(C)c1OCC(=O)N[C@@H](Cc1ccccc1)C[C@H](O)[C@H](Cc1ccccc1)NC(=O)O[C@H]1CO[C@H]2OCC[C@H]21 [Example 15, 5-(2,6-Dimethyl-4-N, N-dimethylamino-phenoxyacetyl)amino-2-((3R,3aS,6aR)-bis-tetrahydrofuran-3-yl-oxycarbonyl)amino-1,6-diphenyl-3-hydroxyhexane]	0.16 µM	43%	–	–	46 µM
Cc1cccc(C)c1OCC(=O)N[C@@H](Cc1ccccc1)[C@@H](O)C[C@H](Cc1ccccc1)NC(=O)OC1CCSC1C(C)C (stereo partly drawn) [Example 27, (2S,3S,5S)-2-(2,6-Dimethylphenoxyacetyl)amino-5-(3(R,S)-2(R,S)-isopropyl-tetrahydrothienyloxycarbonyl)amino-1,6-diphenyl-3-hydroxyhexane]	–	–	–	50%	–
O=C(N[C@@H](Cc1ccccc1)C[C@H](O)[C@H](Cc1ccccc1)NC(=O)c1cccc(O)c1)O[C@H]1CO[C@H]2OCC[C@H]21 [Example 66, (2S,3S,5S)-2-(3-Hydroxy-benzoyl)amino-5-((3R,3aS,6aR)-bis-tetrahydrofuran-3-yl-oxycarbonyl)amino-1,6-diphenyl-3-hydroxyhexane]	0.644 µM	68%	–	–	–

Further lines, with some results ahead:

EC50 (HIVIIIB)	inhibition at 0.0005 µM (HIV-1 protease)	inhibition at 0.0024 µM (HIV-1 protease)	inhibition at 0.0013 µM (HIV-1 protease)	Compound	CC50 at 120 h [1]
0.009 µM	78%	–	–	Cc1cc(N)cc(C)c1OCC(=O)N[C@@H](Cc1ccccc1)C[C@H](O)[C@H](Cc1ccccc1)NC(=O)O[C@H]1CO[C@H]2OCC[C@H]21 [Example 1, (2S,3S,5S)-5-(2,6-Dimethyl-4-amino-phenoxyacetyl)amino-2-((3R,3aS,6aR)-bis-tetrahydrofuran-3-yl-oxycarbonyl)amino-1,6-diphenyl-3-hydroxyhexane]	95 µM
0.17 µM	60%	–	–	Cc1cc(N)cc(C)c1OCC(=O)N[C@@H](Cc1ccccc1)C[C@H](O)[C@H](Cc1ccccc1)NC(=O)O[C@@H]1CO[C@@H]2OCC[C@@H]21 [Example 2, (2S,3S,5S)-5-(2,6-Dimethyl-4-amino-phenoxyacetyl)amino-2-((3S,3aR,6aS)-bis-tetrahydrofuran-3-yl-oxycarbonyl)amino-1,6-diphenyl-3-hydroxyhexane]	90 µM
0.008 µM	91%	–	–	Cc1cc(N)cc(C)c1OCC(=O)N[C@@H](Cc1ccccc1)[C@@H](O)C[C@H](Cc1ccccc1)NC(=O)O[C@H]1CO[C@H]2OCC[C@H]21 [Example 3, (2S,3S,5S)-2-(2,6-Dimethyl-4-amino-phenoxyacetyl)amino-5-((3R,3aS,6aR)-bis-tetrahydrofuran-3-yl-oxycarbonyl)amino-1,6-diphenyl-3-hydroxyhexane]	61 µM
0.032 µM	74%	–	–	Cc1cc(C)c(OCC(=O)N[C@@H](Cc2ccccc2)C[C@H](O)[C@H](Cc2ccccc2)NC(=O)O[C@H]2CO[C@H]3OCC[C@H]32)c(C)c1N [Example 4, (2S,3S,5S)-5-(2,4,6-Trimethyl-3-amino-phenoxyacetyl)amino-2-((3R,3aS,6aR)-bis-tetrahydrofuran-3-yl-oxycarbonyl)amino-1,6-diphenyl-3-hydroxyhexane]	41 µM
0.041 µM	87%	–	–	Cc1cccc(C)c1OCC(=O)N[C@@H](Cc1ccccc1)C[C@H](O)[C@H](Cc1ccccc1)NC(=O)O[C@H]1CO[C@H]2OCC[C@H]21 [Example 5, (2S,3S,5S)-5-(2,6-Dimethyl-phenoxyacetyl)amino-2-((3R,3aS,6aR)-bis-tetrahydrofuran-3-yl-oxycarbonyl)amino-1,6-diphenyl-3-hydroxyhexane]	> 100 µM
0.061 µM	91%	–	–	Cc1cccc(C)c1OCC(=O)N[C@@H](Cc1ccccc1)[C@@H](O)C[C@H](Cc1ccccc1)NC(=O)O[C@H]1CO[C@H]2OCC[C@H]21 [Example 6, (2S,3S,5S)-2-(2,6-Dimethyl-phenoxyacetyl)amino-5-((3R,3aS,6aR)-bis-tetrahydrofuran-3-yl-oxycarbonyl)amino-1,6-diphenyl-3-hydroxyhexane]	> 100 µM
0.815 µM	56%	–	–	Cc1ncnc(C)c1OCC(=O)N[C@@H](Cc1ccccc1)C[C@H](O)[C@H](Cc1ccccc1)NC(=O)O[C@H]1CO[C@H]2OCC[C@H]21 [Example 8, (2S,3S,5S)-5-(4,6-Dimethyl-pyrimidinyl-5-oxyacetyl)amino-2-((3R,3aS,6aR)-bis-tetrahydrofuran-3-yl-oxycarbonyl)amino-1,6-diphenyl-3-hydroxyhexane]	> 100 µM
0.205 µM	82%	–	–	Cc1cc(C)c(OCC(=O)N[C@@H](Cc2ccccc2)C[C@H](O)[C@H](Cc2ccccc2)NC(=O)O[C@H]2CO[C@H]3OCC[C@H]32)c(C)c1 [Example 11, (2S,3S,5S)-5-(2,4,6-Trimethyl-phenoxyacetyl)amino-2-((3R,3aS,6aR)-bis-tetrahydrofuran-3-yl-oxycarbonyl)amino-1,6-diphenyl-3-hydroxyhexane]	48 µM
0.353 µM	74%	–	–	COc1cccc(C)c1OCC(=O)N[C@@H](Cc1ccccc1)C[C@H](O)[C@H](Cc1ccccc1)NC(=O)O[C@H]1CO[C@H]2OCC[C@H]21 [Example 12, (2S,3S,5S)-5-(2-Methoxy-6-methylphenoxyacetyl)amino-2-((3R,3aS,6aR)-bis-tetrahydrofuran-3-yl-oxycarbonyl)amino-1,6-diphenyl-3-hydroxyhexane]	> 32 µM
0.268 µM	69%	–	–	Cc1cc(F)cc(C)c1OCC(=O)N[C@@H](Cc1ccccc1)C[C@H](O)[C@H](Cc1ccccc1)NC(=O)O[C@H]1CO[C@H]2OCC[C@H]21 [Example 14, (2S,3S,5S)-5-(2,6-Dimethyl-4-fluoro-phenoxyacetyl)amino-2-((3R,3aS,6aR)-bis-tetrahydrofuran-3-yl-oxycarbonyl)amino-1,6-diphenyl-3-hydroxyhexane]	64 µM
